# Legend:
# Mus musculus [1] = assay: Toxicity in nude mouse xenografted with human OS-RC-2 cells assessed as body weight loss at 6 mg/kg administered three times a week through oral gavage measured after 32 days (reference value: 33%); assay type: organism-based; details: in vivo, 768 h
# [2] = Solubility of the compound in water; assay type: physicochemical
# HepG2 = assay: Antiproliferative activity against human HepG2 cells after 48 hrs by MTT assay; assay type: functional, cell-based; details: HepG2, 48 h
# NCI-H460 = assay: Antiproliferative activity against human NCI-H460 cells after 48 hrs by MTT assay; assay type: functional, cell-based; details: NCI-H460, 48 h
# DU-145 = assay: Antiproliferative activity against human DU145 cells after 48 hrs by MTT assay; assay type: functional, cell-based; details: DU-145, 48 h
# PC-3 = assay: Antiproliferative activity against human PC3 cells after 48 hrs by MTT assay; assay type: functional, cell-based; details: PC-3, 48 h
# MDA-MB-435 = assay: Antiproliferative activity against human MDA-MB-435 cells after 48 hrs by MTT assay; assay type: functional, cell-based; details: MDA-MB-435, 48 h
# OS-RC-2 [3] = assay: Antitumor activity against human OS-RC2 cells xenografted in nude mouse assessed as tumor weight at 6 mg/kg administered three times a week through oral gavage measured after 32 days (reference value: 0.68 +/- 0.06 g); assay type: functional
# OS-RC-2 [4] = assay: Antitumor activity against human OS-RC2 cells xenografted in nude mouse assessed as tumor growth inhibition at 6 mg/kg administered three times a week through oral gavage measured after 32 days relative to control; assay type: functional; details: OS-RC-2, po, 768 h, read-out: TGI
# [5] = AUC (0 to infinity) in Sprague-Dawley rat at 10 mg/kg, po; assay type: ADME, organism-based; design: dose 10 mg/kg, route oral, time infinity; details: in vivo
# [6] = AUC (0 to t) in Sprague-Dawley rat at 10 mg/kg, po; assay type: ADME, organism-based; details: in vivo
# [7] = Cmax in Sprague-Dawley rat at 10 mg/kg, po; assay type: ADME, organism-based; design: dose 10 mg/kg, route oral; details: in vivo
# [8] = Tmax in Sprague-Dawley rat at 10 mg/kg, po; assay type: ADME, organism-based; details: in vivo
# [9] = Half life in Sprague-Dawley rat at 10 mg/kg, po; assay type: ADME, organism-based; details: in vivo
# [10] = Drug uptake in Sprague-Dawley rat blood at 10 mg/kg, po after 0.25 hrs by HPLC method; assay type: ADME, organism-based; details: read-out: Drug uptake
# [11] = Drug uptake in Sprague-Dawley rat blood at 10 mg/kg, po after 0.5 hrs by HPLC method; assay type: ADME, organism-based; details: read-out: Drug uptake
# [12] = Drug uptake in Sprague-Dawley rat blood at 10 mg/kg, po after 1 hr by HPLC method; assay type: ADME, organism-based; details: read-out: Drug uptake
# [13] = Drug uptake in Sprague-Dawley rat blood at 10 mg/kg, po after 1.5 hrs by HPLC method; assay type: ADME, organism-based; details: read-out: Drug uptake
# [14] = Drug uptake in Sprague-Dawley rat blood at 10 mg/kg, po after 2 hrs by HPLC method; assay type: ADME, organism-based; details: read-out: Drug uptake
# [15] = Drug uptake in Sprague-Dawley rat blood at 10 mg/kg, po after 3 hrs by HPLC method; assay type: ADME, organism-based; details: read-out: Drug uptake
# [16] = Drug uptake in Sprague-Dawley rat blood at 10 mg/kg, po after 4 hrs by HPLC method; assay type: ADME, organism-based; details: read-out: Drug uptake
# [17] = Drug uptake in Sprague-Dawley rat blood at 10 mg/kg, po after 6 hrs by HPLC method; assay type: ADME, organism-based; details: read-out: Drug uptake
# [18] = Drug uptake in Sprague-Dawley rat blood at 10 mg/kg, po after 8 hrs by HPLC method; assay type: ADME, organism-based; details: read-out: Drug uptake
# [19] = Drug uptake in Sprague-Dawley rat blood at 10 mg/kg, po after 24 hrs by HPLC method; assay type: ADME, organism-based; details: read-out: Drug uptake
# OS-RC-2 [20] = assay: Antitumor activity against human OS-RC2 cells xenografted in nude mouse assessed as tumor volume at 6 mg/kg administered three times a week through oral gavage measured on day 1 (reference value: 167.51 +/- 17.09 mm3); assay type: functional
# OS-RC-2 [21] = assay: Antitumor activity against human OS-RC2 cells xenografted in nude mouse assessed as reduction in tumor volume at 6 mg/kg administered three times a week through oral gavage measured on day 5 relative to control; assay type: functional
# OS-RC-2 [22] = assay: Antitumor activity against human OS-RC2 cells xenografted in nude mouse assessed as reduction in tumor volume at 6 mg/kg administered three times a week through oral gavage measured on day 8 relative to control; assay type: functional
# OS-RC-2 [23] = assay: Antitumor activity against human OS-RC2 cells xenografted in nude mouse assessed as reduction in tumor volume at 6 mg/kg administered three times a week through oral gavage measured on day 12 relative to control; assay type: functional
# OS-RC-2 [24] = assay: Antitumor activity against human OS-RC2 cells xenografted in nude mouse assessed as reduction in tumor volume at 6 mg/kg administered three times a week through oral gavage measured on day 15 relative to control; assay type: functional
# OS-RC-2 [25] = assay: Antitumor activity against human OS-RC2 cells xenografted in nude mouse assessed as reduction in tumor volume at 6 mg/kg administered three times a week through oral gavage measured on day 19 relative to control; assay type: functional
# OS-RC-2 [26] = assay: Antitumor activity against human OS-RC2 cells xenografted in nude mouse assessed as reduction in tumor volume at 6 mg/kg administered three times a week through oral gavage measured on day 22 relative to control; assay type: functional
# OS-RC-2 [27] = assay: Antitumor activity against human OS-RC2 cells xenografted in nude mouse assessed as reduction in tumor volume at 6 mg/kg administered three times a week through oral gavage measured on day 26 relative to control; assay type: functional
# OS-RC-2 [28] = assay: Antitumor activity against human OS-RC2 cells xenografted in nude mouse assessed as reduction in tumor volume at 6 mg/kg administered three times a week through oral gavage measured on day 29 relative to control; assay type: functional
# OS-RC-2 [29] = assay: Antitumor activity against human OS-RC2 cells xenografted in nude mouse assessed as reduction in tumor volume at 6 mg/kg administered three times a week through oral gavage measured on day 32 relative to control; assay type: functional
# Mus musculus [30] = assay: Toxicity in nude mouse xenografted with human OS-RC-2 cells assessed as body weight loss at 6 mg/kg administered three times a week through oral gavage measured on day 5 (reference value: 1.9%); assay type: organism-based; details: in vivo
# Mus musculus [31] = assay: Toxicity in nude mouse xenografted with human OS-RC2 cells assessed as body weight loss at 6 mg/kg administered three times a week through oral gavage and measured on Day 8 (reference value: 8.5 %); assay type: organism-based; details: in vivo
# Mus musculus [32] = assay: Toxicity in nude mouse xenografted with human OS-RC2 cells assessed as body weight loss at 6 mg/kg administered three times a week through oral gavage and measured on Day 12 (reference value: 15 %); assay type: organism-based; details: in vivo
# Mus musculus [33] = assay: Toxicity in nude mouse xenografted with human OS-RC2 cells assessed as body weight loss at 6 mg/kg administered three times a week through oral gavage and measured on day 15 (reference value: 20.2 %); assay type: organism-based; details: in vivo
# Mus musculus [34] = assay: Toxicity in nude mouse xenografted with human OS-RC2 cells assessed as body weight loss at 6 mg/kg administered three times a week through oral gavage and measured on Day 19 (reference value: 23.1 %); assay type: organism-based; details: in vivo
# Mus musculus [35] = assay: Toxicity in nude mouse xenografted with human OS-RC2 cells assessed as body weight loss at 6 mg/kg administered three times a week through oral gavage and measured on Day 22 (reference value: 23.1 %); assay type: organism-based; details: in vivo
# Mus musculus [36] = assay: Toxicity in nude mouse xenografted with human OS-RC2 cells assessed as body weight loss at 6 mg/kg administered three times a week through oral gavage and measured on Day 26 (reference value: 28.2 %); assay type: organism-based; details: in vivo
# Mus musculus [37] = assay: Toxicity in nude mouse xenografted with human OS-RC2 cells assessed as body weight loss at 6 mg/kg administered three times a week through oral gavage and measured on Day 29 (reference value: 31.2 %); assay type: organism-based; details: in vivo
# Mus musculus [38] = assay: Toxicity in nude mouse xenografted with human OS-RC-2 cells assessed as death at 6 mg/kg administered three times a week through oral gavage after 32 days; assay type: organism-based; details: in vivo, 768 h
# Mus musculus [39] = assay: Toxicity in nude mouse xenografted with human OS-RC-2 cells assessed as body weight at 6 mg/kg administered three times a week through oral gavage measured on day 1 (reference value: 20.4 +/- 0.33 g); assay type: organism-based; details: in vivo
structure (smiles),measurement,setting,value
CO[C@H]1C[C@@H]2CC[C@@H](C)[C@@](O)(O2)C(=O)C(=O)N2CCCC[C@H]2C(=O)O[C@H]([C@H](C)C[C@@H]2CC[C@@H](OCCO)[C@H](OC)C2)CC(=O)[C@H](C)/C=C(\C)[C@@H](O)[C@@H](OC)C(=O)[C@H](C)C[C@H](C)\C=C/C=C/C=C/1C,Activity,Mus musculus [1],11.7%
same,solubility,[2],1 µg/mL
same,IC50,HepG2,52.3 µM
same,IC50,NCI-H460,99.8 µM
same,IC50,DU-145,57.3 µM
same,IC50,PC-3,30.2 µM
same,IC50,MDA-MB-435,62.5 µM
same,Activity,OS-RC-2 [3],0.4 g
same,inhibition in vivo at 6 mg/kg,OS-RC-2 [4],41.1%
same,AUC(0-inf),[5],454 ng·h/mL
same,AUC(0-t),[6],454 ng·h/mL
same,Cmax,[7],126 ng/mL
same,Tmax,[8],1.91 h
same,half-life,[9],2.2 h
same,concentration at 0.25 h,[10],17.4 ng/mL
same,concentration at 0.5 h,[11],100 ng/mL
same,concentration at 1 h,[12],99.2 ng/mL
same,concentration at 1.5 h,[13],90.4 ng/mL
same,concentration at 2 h,[14],69.7 ng/mL
same,concentration at 3 h,[15],64.3 ng/mL
same,concentration at 4 h,[16],61.4 ng/mL
same,concentration at 6 h,[17],32.4 ng/mL
same,concentration at 8 h,[18],16.3 ng/mL
same,concentration at 24 h,[19],2.28 ng/mL
same,Activity,OS-RC-2 [20],167.38 mm3
same,T/C,OS-RC-2 [21],79%
same,T/C,OS-RC-2 [22],76%
same,T/C,OS-RC-2 [23],0.72%
same,T/C,OS-RC-2 [24],0.66%
same,T/C,OS-RC-2 [25],0.71%
same,T/C,OS-RC-2 [26],0.69%
same,T/C,OS-RC-2 [27],0.71%
same,T/C,OS-RC-2 [28],0.72%
same,T/C,OS-RC-2 [29],0.77%
same,Activity,Mus musculus [30],2.7%
same,Activity,Mus musculus [31],3.1%
same,Activity,Mus musculus [32],8.2%
same,Activity,Mus musculus [33],8.7%
same,Activity,Mus musculus [34],9.7%
same,Activity,Mus musculus [35],9.7%
same,Activity,Mus musculus [36],9.1%
same,Activity,Mus musculus [37],10.5%
same,Activity,Mus musculus [38],Non-Toxic
same,Activity,Mus musculus [39],20.94 g

# Reference: ChEMBL document CHEMBL4049384, “Synthesis and evaluation of an injectable everolimus prodrug” (Bioorg Med Chem Lett, 2017)
